According to publication PMC10460844, “Real‐Time Monitoring of Multitarget Antimicrobial Mechanisms of Peptoids Using Label‐Free Imaging with Optical Diffraction Tomography” (Advanced Science, 2023):
≈ marks a conversion by molar mass, not a printed value. Counter-ions that a name gives are not always drawn. Like-named read-outs stand apart in the source and are kept apart here. Square brackets hold non-standard residues; d marks the D form. Peptide text beside a SMILES is read from it. Gly(N(CH2)2(3-indolyl)) = O=C(O)CNCCc1c[nH]c2ccccc12; Nspe = C[C@H](NCC(=O)O)c1ccccc1; Nlys = NCCCCNCC(=O)O

Assays:
E. coli ATCC 25922 = type: cell-based, Escherichia coli
Description: (§1) The antibacterial activity of the peptoids was evaluated against gram‐positive (Staphylococcus aureus, ATCC 25 923) and gram‐negative (Escherichia coli, ATCC 25 922) bacteria. […] The MIC of each peptoid was determined using a broth dilution assay. For each assay, the primary culture of either S. aureus or E. coli was grown overnight in cation‐adjusted Mueller Hinton broth 2 (MHB2) media at 37 °C with shaking. A secondary culture was prepared the next day, grown for 3–4 h, and then diluted in MHB2 media with a final concentration of 0.001% acetic acid and 0.02% bovine serum albumin to obtain a calculated optical density (OD) of 0.001. This corresponded to ≈2–5 × 10^5 colony‐forming units (CFU mL^−1) of bacteria. Using 96‐well polypropylene plates (Eppendorf, Hamburg, Germany), 100 µL of 2–5 × 10^5 CFU mL^−1 bacteria were added in triplicate for each peptoid. Each peptoid was assayed at six different concentrations in two‐fold serial dilutions. The maximum peptoid concentration was 25 µM. […] The MIC value determination was performed in triplicate. The MIC was defined as the lowest peptoid concentration that prevented turbidity during visual inspection.

S. aureus ATCC 25923 = type: cell-based, Staphylococcus aureus
Description: as §1

rat erythrocytes = assay: Hemolysis assay; type: cell-based
Method in brief: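 Washed Sprague-Dawley rat erythrocytes (10% suspension in PBS pH 7.4) mixed with peptoids (0–100 µM), 60 min at 37 °C; supernatant A540 expressed as % of 1% Triton X-100 lysis. HC10/HC50 are concentrations giving 10%/50% hemolysis; Hmax is hemolysis at 100 µM.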

[1] = Analytical reversed-phase HPLC elution (hydrophobicity); type: physicochemical; details: analytical RP-HPLC, 1 mL/min, UV 220 nm; for HPLC elution: Table S1, SunFire C18, water/ACN + 0.1% TFA, 5 to 100% B linear over 30 min, approximate comparison of hydrophobicity
Method in brief: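 Retention time (tR) reflects hydrophobicity, with detection at 220 nm. Elution used a 5–100% acetonitrile linear gradient over 30 min after a 2 min hold at 5%, then 5 min at 100%, with both phases containing 0.1% TFA. Column was an analytical C18 (4.6 × 250 mm, 5 μm) run at 1 mL/min.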

[2] = Table S2, broth dilution, MHB2, 37 °C 24 h, max 25 µM, mean of triplicate

Compound | MIC E. coli ATCC25922 (E. coli ATCC 25922; ATCC 25922) [µM] | MIC S. aureus ATCC25923 (S. aureus ATCC 25923; ATCC 25923) [µM] | Hmax (100 µM) (rat erythrocytes) [%] | HC10 (rat erythrocytes; red cells of rat) [µM] | HC50 (rat erythrocytes; red cells of rat) [µM] | HPLC elution (%ACN) ([1]; Table 1, SunFire C18 […] 250 mm, water/ACN + 0.1% TFA, 5% B 2 min then linear to 100% B over 30 min, used as measure of hydrophobicity) | MIC S. aureus ATCC25923 (S. aureus ATCC 25923; [2]) [µM] | H max (100 µM) (rat erythrocytes) [%] | HC10 (rat erythrocytes; pH 7.4) [µM] | HC50 (rat erythrocytes; pH 7.4) [µM] | HPLC elution [1] [% MeCN] | MIC E. coli ATCC25922 (E. coli ATCC 25922; [2]) [µM]
C[C@@H](c1ccccc1)N(CC(N)=O)C(=O)CN(C(=O)CN(CCCCN)C(=O)CN(C(=O)CN(C(=O)CN(CCCCN)C(=O)CN(C(=O)CN(C(=O)CN(CCCCN)C(=O)CN(CCc1c[nH]c2ccccc12)C(=O)CN(C(=O)CNCCCCN)[C@@H](C)c1ccccc1)[C@@H](C)c1ccccc1)[C@@H](C)c1ccccc1)[C@@H](C)c1ccccc1)[C@@H](C)c1ccccc1)[C@@H](C)c1ccccc1 [10-AcOH] | 6.3 (≈ 11.7 µg/mL) | 1.6 (≈ 2.97 µg/mL) | 102.3±11.3 | 14.1 | 29.4 |  |  |  |  |  |  | 
C[C@@H](c1ccccc1)N(CC(N)=O)C(=O)CN(C(=O)CN(CCCCN)C(=O)CN(C(=O)CN(C(=O)CN(CCCCN)C(=O)CN(C(=O)CN(C(=O)CN(CCCCN)C(=O)CN(CCc1c[nH]c2ccccc12)C(=O)CN(C(=O)CNCCCCN)[C@@H](C)c1ccccc1)[C@@H](C)c1ccccc1)[C@@H](C)c1ccccc1)[C@@H](C)c1ccccc1)[C@@H](C)c1ccccc1)[C@@H](C)c1ccccc1 [10-HCl] | 6.3 | 3.1 | 81.5±7.4 | 15.3 | 37.8 |  |  |  |  |  |  | 
C[C@@H](c1ccccc1)N(CC(=O)N(CCCCN)CC(=O)N(CC(=O)N(CC(=O)N(CCCCN)CC(=O)N(CC(=O)N(CC(=O)N(CCCCN)CC(=O)N(CCc1c[nH]c2ccccc12)CC(=O)N(CCc1c[nH]c2ccccc12)CC(N)=O)[C@@H](C)c1ccccc1)[C@@H](C)c1ccccc1)[C@@H](C)c1ccccc1)[C@@H](C)c1ccccc1)C(=O)CN(C(=O)CNCCCCN)[C@@H](C)c1ccccc1 [11-AcOH] (H-[Nlys][Nspe][Nspe][Nlys][Nspe][Nspe][Nlys][Nspe][Nspe][Nlys][Gly(N(CH2)2(3-indolyl))][Gly(N(CH2)2(3-indolyl))]-NH2) | 3.1 (≈ 5.88 µg/mL) | 1.6 (≈ 3.04 µg/mL) | 110.4±0.2 | 8.7 | 29.7 |  |  |  |  |  |  | 
C[C@@H](c1ccccc1)N(CC(=O)N(CCCCN)CC(=O)N(CC(=O)N(CC(=O)N(CCCCN)CC(=O)N(CC(=O)N(CC(=O)N(CCCCN)CC(=O)N(CCc1c[nH]c2ccccc12)CC(=O)N(CCc1c[nH]c2ccccc12)CC(N)=O)[C@@H](C)c1ccccc1)[C@@H](C)c1ccccc1)[C@@H](C)c1ccccc1)[C@@H](C)c1ccccc1)C(=O)CN(C(=O)CNCCCCN)[C@@H](C)c1ccccc1 [11-HCl] (H-[Nlys][Nspe][Nspe][Nlys][Nspe][Nspe][Nlys][Nspe][Nspe][Nlys][Gly(N(CH2)2(3-indolyl))][Gly(N(CH2)2(3-indolyl))]-NH2) | 3.1 | 3.1 | 113.9±1.7 | 10.1 | 21.5 |  |  |  |  |  |  | 
C[C@@H](c1ccccc1)N(CC(N)=O)C(=O)CN(C(=O)CN(CCCCN)C(=O)CN(C(=O)CN(C(=O)CN(CCCCN)C(=O)CN(C(=O)CN(C(=O)CN(CCCCN)C(=O)CN(CCc1c[nH]c2ccccc12)C(=O)CN(CCc1c[nH]c2ccccc12)C(=O)CNCCCCN)[C@@H](C)c1ccccc1)[C@@H](C)c1ccccc1)[C@@H](C)c1ccccc1)[C@@H](C)c1ccccc1)[C@@H](C)c1ccccc1 [14-AcOH] | 3.1 (≈ 5.88 µg/mL) | 1.6 (≈ 3.04 µg/mL) | 100.7±17.2 | 14.9 | 51.8 |  |  |  |  |  |  | 
C[C@@H](c1ccccc1)N(CC(N)=O)C(=O)CN(C(=O)CN(CCCCN)C(=O)CN(C(=O)CN(C(=O)CN(CCCCN)C(=O)CN(C(=O)CN(C(=O)CN(CCCCN)C(=O)CN(CCc1c[nH]c2ccccc12)C(=O)CN(CCc1c[nH]c2ccccc12)C(=O)CNCCCCN)[C@@H](C)c1ccccc1)[C@@H](C)c1ccccc1)[C@@H](C)c1ccccc1)[C@@H](C)c1ccccc1)[C@@H](C)c1ccccc1 [14-HCl] | 3.1 | 3.1 | 75.3±5.0 | 19.2 | 68.2 |  |  |  |  |  |  | 
C[C@@H](c1ccccc1)N(CC(N)=O)C(=O)CN(C(=O)CN(CCCCN)C(=O)CN(C(=O)CN(CCc1c[nH]c2ccccc12)C(=O)CN(CCCCN)C(=O)CN(CCc1c[nH]c2ccccc12)C(=O)CN(C(=O)CN(CCCCN)C(=O)CN(C(=O)CN(C(=O)CNCCCCN)[C@@H](C)c1ccccc1)[C@@H](C)c1ccccc1)[C@@H](C)c1ccccc1)[C@@H](C)c1ccccc1)[C@@H](C)c1ccccc1 [15-AcOH] | 6.3 (≈ 12 µg/mL) | 3.1 (≈ 5.88 µg/mL) | 34.1±1.1 | 39.2 | > 100 |  |  |  |  |  |  | 
CC[C@H](C)[C@H](N)C(=O)N[C@@H](CC(C)C)C(=O)N[C@@H](CCCNC(=N)N)C(=O)N[C@@H](Cc1c[nH]c2ccccc12)C(=O)N1CCC[C@H]1C(=O)N[C@@H](Cc1c[nH]c2ccccc12)C(=O)N[C@@H](Cc1c[nH]c2ccccc12)C(=O)N1CCC[C@H]1C(=O)N[C@@H](Cc1c[nH]c2ccccc12)C(=O)N[C@@H](CCCNC(=N)N)C(=O)N[C@@H](CCCNC(=N)N)C(=O)N[C@@H](CCCCN)C(N)=O [Omiganan, reference compound] (H-ILRWPWWPWRRK-NH2) |  |  | 0 |  |  | 45.7 | 12.5 (≈ 22.2 µg/mL) | 0 | > 100 | > 100 |  | 
C[C@@H](c1ccccc1)N(CC(N)=O)C(=O)CN(C(=O)CN(CCCCN)C(=O)CN(C(=O)CN(C(=O)CN(CCCCN)C(=O)CN(CCc1c[nH]c2ccccc12)C(=O)CN(C(=O)CN(CCCCN)C(=O)CN(C(=O)CN(C(=O)CNCCCCN)[C@@H](C)c1ccccc1)[C@@H](C)c1ccccc1)[C@@H](C)c1ccccc1)[C@@H](C)c1ccccc1)[C@@H](C)c1ccccc1)[C@@H](C)c1ccccc1 [peptoid 9] |  |  | 106.4±0.6 |  |  |  |  |  | 10.6 | 31.9 | 54.6 | 3.1 (≈ 5.76 µg/mL)
C[C@@H](c1ccccc1)N(CC(N)=O)C(=O)CN(C(=O)CN(CCCCN)C(=O)CN(C(=O)CN(CCc1c[nH]c2ccccc12)C(=O)CN(CCCCN)C(=O)CN(CCc1c[nH]c2ccccc12)C(=O)CN(C(=O)CN(CCCCN)C(=O)CN(C(=O)CN(C(=O)CNCCCCN)[C@@H](C)c1ccccc1)[C@@H](C)c1ccccc1)[C@@H](C)c1ccccc1)[C@@H](C)c1ccccc1)[C@@H](C)c1ccccc1 [peptoid 15] | 3.1 (≈ 5.88 µg/mL) |  |  | 20.5 | 89.2 |  |  |  | 28.1 | 60.9 | 53.7 | 
